Experimental data taken from US9138495B2, “Conjugates and their uses in molecular imaging” (King's College London, priority 2010, dated 2015).

How the values were obtained:
[1] = biological target: T1, serum transferrin (Homo sapiens, UniProt P02787); experiment: Labelling of CP256 with ^68Ga in serum (PD10, ethanol precipitation, ITLC); format: in vitro ADME
T1 construct: from tissue; host or cells: human blood serum
Experimental: Two different radiolabelling techniques were used. In method 1, 100 μl of chelator (CP-256, 2.35 mM, 1.17 mM, 589 μM, 117 μM, 23 μM and 11.7 μM; pH 7-7.5 in PBS/bicarbonate buffer) was mixed with 300 μl of human serum. After 10-15 minutes 20 μl of 68Ga eluate was added and the solution incubated at 37° C. in a plastic tube. In the second method, 20 μl of ^68Ga solution was added to the 300 μl of human blood serum. After 15-20 minutes 100 μl of chelator (Cp-256) was added. At each time point 50 μl of the incubation solution was applied to the top of the PD-10 column and eluted the column with PBS collecting 0.5 ml fractions. Fractions were counted in a gamma counter (Perkin Elmer wizard 31480 automatic gamma counter, 10 seconds per sample). The incubated solution were also analysed by ethanol precipitation, counting the pellet and supernatant after centrifugation to determine protein bound ^68Ga, and the centrifuged supernatants were analysed by ITLC-SG with 0.1 M sodium citrate as mobile phase. In these conditions “free” ^68Ga migrates with the solvent front (Rf=1) and ^68Ga-CP256 remains at the origin (Rf=0).

[2] = biological target: T2, human apo-transferrin (Homo sapiens, UniProt P02787); experiment: Tracer stability in apo-transferrin using 30 kDa MWCO filters; format: in vitro ADME; conditions: tracer radiolabelled at 100 μM ligand, 37° C.
T2 construct: purchased Sigma Aldrich T5391-10MG
T2 sequence (P02787 20-698): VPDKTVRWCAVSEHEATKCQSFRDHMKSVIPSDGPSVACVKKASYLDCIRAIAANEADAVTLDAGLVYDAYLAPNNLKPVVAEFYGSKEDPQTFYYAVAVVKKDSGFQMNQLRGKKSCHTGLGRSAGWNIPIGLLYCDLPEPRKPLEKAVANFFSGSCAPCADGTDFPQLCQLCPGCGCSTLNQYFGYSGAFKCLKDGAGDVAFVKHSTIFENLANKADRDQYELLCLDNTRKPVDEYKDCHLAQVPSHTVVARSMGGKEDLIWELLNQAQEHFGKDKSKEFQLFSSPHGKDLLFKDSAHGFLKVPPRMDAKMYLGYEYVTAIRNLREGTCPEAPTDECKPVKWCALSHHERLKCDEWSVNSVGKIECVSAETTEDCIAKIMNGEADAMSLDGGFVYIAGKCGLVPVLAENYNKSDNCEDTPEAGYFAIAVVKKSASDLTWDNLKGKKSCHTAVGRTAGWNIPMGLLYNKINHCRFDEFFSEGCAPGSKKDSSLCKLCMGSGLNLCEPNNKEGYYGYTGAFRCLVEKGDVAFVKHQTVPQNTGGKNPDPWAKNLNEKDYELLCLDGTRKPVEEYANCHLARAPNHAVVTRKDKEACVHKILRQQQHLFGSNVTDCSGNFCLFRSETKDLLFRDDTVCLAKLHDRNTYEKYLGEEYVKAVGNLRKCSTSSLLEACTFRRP
Experimental: 50 mM TRIS-HCl buffer (pH 7.5) was prepared by dilution of a 1 M stock solution. Sodium bicarbonate was added to a concentration of 25 mM. A 2.5 mg/ml (32 μM) solution of apo-transferrin was prepared in this buffer. Solutions of all tracers were radiolabelled at a concentration of 100 μM. A 10 μM CP256 solution was also prepared. See table 9 for radiolabelling conditions. A 10 μl aliquot of each radiolabelled tracer was added to 30 μl of an appropriate buffer to neutralise the pH to between 7 and 7.5. This buffer was 2 M TRIS-HCl (pH 7.5) in the case of those tracers labelled in the acetate buffer. For preparations of ^67Ga-CP256 and ^67Ga-Citrate the buffer was PBS. Details can be seen in Table 9. Apo-transferrin solution (200 μl) in a plastic microcentrifuge tube was incubated at 37° C. in a metal heating block. To this was added 20 μl of each pH-neutralised tracer. 20 μl of each tracer was also incubated in a reference buffer (containing no apo-transferrin) of 50 mM TRIS-HCl containing 25 mM sodium bicarbonate. […] The filter section of the tube was removed and counted separately from the tube in a gamma counter. Percentage binding of the radioactivity to the MWCO filter was calculated using the following equation: Counts from filter section/Counts from filter section+counts from tube section×100 The analysis was done in triplicate after 4 hours for the apo-transferrin incubations. […]

[3] = biological target: T3, sialoadhesin (Mus musculus, UniProt Q62230); format: in vivo; conditions: group 2: ^67Ga citrate 5 min after unconjugated SER4; wild type mice, 3 h
T3 construct: Sialoadhesin is found on the surface of macrophages; endogenous in cells; host or cells: macrophages (spleen, liver) of living wild-type C57Bl/6 mice
T3 sequence (Q62230 20-1695): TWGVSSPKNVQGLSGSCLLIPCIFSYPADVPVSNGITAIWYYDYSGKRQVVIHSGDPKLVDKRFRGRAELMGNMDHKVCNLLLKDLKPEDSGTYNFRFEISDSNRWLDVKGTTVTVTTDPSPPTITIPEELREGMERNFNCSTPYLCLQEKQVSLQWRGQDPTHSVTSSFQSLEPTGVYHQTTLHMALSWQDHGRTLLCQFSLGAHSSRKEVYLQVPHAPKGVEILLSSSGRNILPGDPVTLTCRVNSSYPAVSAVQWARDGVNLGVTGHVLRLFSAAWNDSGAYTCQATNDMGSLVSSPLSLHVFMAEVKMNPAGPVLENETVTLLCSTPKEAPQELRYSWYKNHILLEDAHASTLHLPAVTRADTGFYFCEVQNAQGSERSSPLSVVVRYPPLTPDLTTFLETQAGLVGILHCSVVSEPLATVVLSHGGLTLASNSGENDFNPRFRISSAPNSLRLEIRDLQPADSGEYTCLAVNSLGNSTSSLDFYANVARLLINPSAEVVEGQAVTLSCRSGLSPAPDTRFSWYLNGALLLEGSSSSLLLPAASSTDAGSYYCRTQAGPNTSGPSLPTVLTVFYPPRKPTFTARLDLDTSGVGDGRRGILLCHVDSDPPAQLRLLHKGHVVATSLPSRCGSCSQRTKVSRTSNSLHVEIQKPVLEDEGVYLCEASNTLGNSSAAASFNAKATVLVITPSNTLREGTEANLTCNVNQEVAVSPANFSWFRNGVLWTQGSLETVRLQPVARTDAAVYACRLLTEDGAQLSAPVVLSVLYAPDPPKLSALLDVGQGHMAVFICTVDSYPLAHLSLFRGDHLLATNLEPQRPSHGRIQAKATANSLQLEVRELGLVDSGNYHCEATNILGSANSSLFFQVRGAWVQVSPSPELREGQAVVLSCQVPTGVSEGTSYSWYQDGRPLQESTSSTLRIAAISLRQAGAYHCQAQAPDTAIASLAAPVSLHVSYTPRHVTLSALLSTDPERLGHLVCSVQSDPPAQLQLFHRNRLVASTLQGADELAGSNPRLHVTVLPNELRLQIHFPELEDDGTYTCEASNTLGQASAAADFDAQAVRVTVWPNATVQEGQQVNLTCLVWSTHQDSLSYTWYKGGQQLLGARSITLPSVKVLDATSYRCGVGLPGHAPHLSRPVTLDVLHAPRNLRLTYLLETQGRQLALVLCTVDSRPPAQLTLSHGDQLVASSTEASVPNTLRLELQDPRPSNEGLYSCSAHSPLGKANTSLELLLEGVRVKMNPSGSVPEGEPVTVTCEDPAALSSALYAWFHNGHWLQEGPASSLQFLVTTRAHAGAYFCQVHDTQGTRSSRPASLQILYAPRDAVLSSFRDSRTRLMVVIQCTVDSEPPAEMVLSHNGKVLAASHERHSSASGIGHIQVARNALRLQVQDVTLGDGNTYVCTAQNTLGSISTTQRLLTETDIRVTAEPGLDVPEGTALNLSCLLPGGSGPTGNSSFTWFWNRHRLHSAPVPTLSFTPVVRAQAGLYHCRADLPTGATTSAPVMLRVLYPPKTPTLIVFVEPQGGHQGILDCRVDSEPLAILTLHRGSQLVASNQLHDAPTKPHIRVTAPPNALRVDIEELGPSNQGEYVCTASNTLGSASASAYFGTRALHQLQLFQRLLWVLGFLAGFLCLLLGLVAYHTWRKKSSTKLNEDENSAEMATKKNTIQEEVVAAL
Experimental: CP256-SER4 was labelled with ^67Ga to give ^67Ga-CP256-SER4. Groups of wild type mice were injected with either directly labelled Ga-CP256-SER4 (group 1), or SER4 (unconjugated) followed 5 min later by ^67Ga citrate (group 2) or CP256-SER4 followed by ^67Ga citrate.
The same experiments were also performed using sialoadhesin knockout mice. All animals were killed after 3 h and biodistribution of radioactivity determined.
^67Gallium radiolabelling was performed by addition of 45 μL ^67Ga citrate (0.6-0.75 MBq) to 90 μL (90 μg) CP256-SER4. Radiolabelling was allowed to proceed for 10 min before dilution to 350 μL with phosphate buffered saline. Injections containing 25 μg of labelled antibody were drawn up. Analysis of the radiolabelled antibody was performed by size exclusion HPLC using 0.1 M phosphate buffer containing 2 mM EDTA as the mobile phase to ensure good radiolabelling had been achieved prior to injection into animals.
Groups of wild type mice (C57Bl/6, male 8-10 weeks, n=2 to 3 per group) were injected with either directly labelled ^67Ga-CP256-SER4 (group 1), or SER4 (unconjugated) followed 5 min later by ^67Ga citrate (group 2) or CP256-SER4 followed by ^67Ga citrate. […] All animals were killed after 3 h and biodistribution of radioactivity determined by explanting tissues and weighing and counting.

T1 sequence (P02787 20-698): as the sequence (P02787 20-698) above

Compound | CP256 sample concentration giving a chromatogram similar to that of ^68Ga-CP256 in serum ([1]; ^68Ga chloride added to mixture of CP256 and human serum) | chelation of ^68Ga in competition with serum transferrin ([1]; ^68Ga chloride added to mixture of CP256 and human serum, 37° C.) | extraction of ^68Ga from ^68Ga-transferrin complex ([1]; ^68Ga equilibrated first with serum, then CP256 added) | free ^68Ga (ITLC of supernatants) ([1]; serum containing CP256) | protein bound ^68Ga (ethanol precipitation) ([1]; serum containing CP256) | % radioactivity bound to MWCO filter, in reference buffer ([2]; 50 mM TRIS-HCl, 25 mM bicarbonate, no apo-transferrin) | % radioactivity bound to MWCO filter, apo-transferrin incubation, after 4 hours ([2]; apo-transferrin, 4 hours) | activity in circulating blood [3]
CC(=O)NC(CCC(=O)NCc1c(O)c(=O)cc(C)n1C)(CCC(=O)NCc1c(O)c(=O)cc(C)n1C)CCC(=O)NCc1c(O)c(=O)cc(C)n1C.Cl.Cl.Cl [CP256, 4-Acetylamino-4-{2-[(3-hydroxy-1,6-dimethyl-4-oxo-1,4-dihydro-pyridin-2-ylmethyl)-carbamoyl]-ethyl}-heptanedioic acid bis-[(3-hydroxy-1,6-dimethyl-4-oxo-1,4-dihydro-pyridin-2-ylmethyl)-amide]tris hydrochloride salt] | ≥ 23 µM | competes effectively with serum transferrin | able to extract ^68Ga from ^68Ga-transferrin complex | no detectable free ^68Ga | no measurable protein binding | – | – | –
O=C([O-])CC(O)(CC(=O)[O-])C(=O)[O-].[67Ga+3] [^67Ga-CITRATE] | – | – | – | – | – | 1.7 ± 0.5% | 73.0 ± 4.1% | 7 % ID/g
